In brackets after ≈: the same amount, converted by molar mass. Where two headings read alike, the source gives them in different places. *1 amine or outer side, *2 acyl side, *3 side chain or, on linkers, in order; H or OH if unused. Where a SMILES comes first, the peptide text is derived from it. Bridges are numbered along the chain shown (N, C = ends). [ ]: non-standard residue; d: D form. The star is where a group is joined. Phe(3R-OH) = O=C([C@@H](N[*:1])[C@H](O[*:3])c1ccccc1)[*:2]; Phe(4-NO2) = N[C@@H](Cc1ccc([N+](=O)[O-])cc1)C(=O)O; Phe(3,4-(OMe)2) = COc1ccc(C[C@H](N)C(=O)O)cc1OC; Asn(3S-OH) = NC(=O)[C@@H](O)[C@H](N)C(=O)O; Leu(3R-OH) = CC(C)[C@@H](O)[C@H](N)C(=O)O; dAla(TMS) = C[Si](C)(C)C[C@@H](N)C(=O)O; d(tBuAla) = CC(C)(C)C[C@@H](N)C(=O)O; tBuAla = CC(C)(C)C[C@H](N)C(=O)O; 2Pal = N[C@@H](Cc1ccccn1)C(=O)O; 3Pal = N[C@@H](Cc1cccnc1)C(=O)O; aThr = C[C@H](O)[C@H](N)C(=O)O; dOrn = NCCC[C@@H](N)C(=O)O; Ac6c = NC1(C(=O)O)CCCCC1; Cbz = O=C(OCc1ccccc1)*
Experiments:
E. faecalis ICB 27159 = type: cell-based, Enterococcus faecalis
Protocol: (§1) Determination of the Minimum Inhibitory Concentration (MIC):
(§2) The MIC is determined in the liquid dilution test in accordance with the NCCLS guidelines. Overnight cultures of Staphylococcus aureus 133, Enterococcus faecalis 27159, E. faecium 4147 and Streptococcus pneumoniae G9a are incubated with the desired test substances in a 1:2 dilution series. The MIC determination is carried out with a cell count of 10^5 microbes per ml in Isosensitest medium (Difco, Irvine/USA), with the exception of S. pneumoniae which is tested in BHI broth (Difco, Irvine/USA) with 10% bovine serum with a cell count of 10^6 microbes per ml. The cultures are incubated at 37° C. for 18-24 hours, S. pneumoniae in the presence of 10% CO2.
(§3) The MIC is defined as the lowest concentration of each substance at which visible bacterial growth no longer occurs. The MIC values are reported in μg/ml.

E. faecium L4001 = type: cell-based, Enterococcus faecium
[1] = tested on: Staphylococcus aureus 133; type: cell-based
Protocol: as §1, §2, §3

[2] = tested on: Streptococcus pneumoniae G9a; type: cell-based
Protocol: as §1, §2, §3

[3] = Isosensitest medium, 10^5 microbes per ml, 37° C., 18-24 hours

Row | SMILES | MIC E. faecalis ICB 27159 (E. faecalis ICB 27159; ICB 27159) | MIC E. faecium L4001 (E. faecium L4001; L4001) | MIC S. aureus 133 [1]; 133 | MIC S. pneumoniae ([2]; G9a) | MIC E. faecalis ICB 27159 (E. faecalis ICB 27159; [3]) | MIC E. faecium L4001 (E. faecium L4001; [3]) | MIC S. aureus 133 [1, 3] | MIC S. pneumoniae ([2]; BHI broth with 10% bovine serum, 10^6 microbes per ml, 10% CO2, 37° C., 18-24 hours)
1 | CC[C@H](C)[C@@H]1NC(=O)[C@@H](CCCNC(=N)N)NC(=O)[C@H](CC(C)C)NC(=O)[C@H]([C@H](O)C(C)C)NC(=O)[C@@H](NC(=O)[C@H](CC(C)C)NC(=O)[C@@H](N)Cc2ccccc2)[C@@H](c2ccccc2)OC(=O)[C@H](CO)NC(=O)[C@H]([C@H](O)C(N)=O)NC(=O)CNC(=O)[C@H]([C@H](C)O)NC1=O [Example 48, L-Phenylalanyl-de(1-D-leucyl)lysobactin bistrifluoroacetate] (H-FL[Phe(3R-OH)][Leu(3R-OH)]L[dR]I[aThr]G[Asn(3S-OH)]S; ester 3-C) | 0.5 µg/mL (≈ 0.382 µM) | 0.25 µg/mL (≈ 0.191 µM) | 0.125 µg/mL (≈ 0.0954 µM) | 0.125 µg/mL (≈ 0.0954 µM) |  |  |  | 
2 | CC[C@H](C)[C@@H]1NC(=O)[C@@H](CCCNC(=N)N)NC(=O)[C@H](CC(C)C)NC(=O)[C@H]([C@H](O)C(C)C)NC(=O)[C@@H](NC(=O)[C@H](CC(C)C)NC(=O)C2(N)CCCCC2)[C@@H](c2ccccc2)OC(=O)[C@H](CO)NC(=O)[C@H]([C@H](O)C(N)=O)NC(=O)CNC(=O)[C@H]([C@H](C)O)NC1=O [Example 57, N-(1-Aminocyclohexyl)carbonyl-de(1-D-leucyl)lysobactin bistrifluoroacetate] (H-[Ac6c]L[Phe(3R-OH)][Leu(3R-OH)]L[dR]I[aThr]G[Asn(3S-OH)]S; ester 3-C) | 1 µg/mL (≈ 0.776 µM) | 1 µg/mL (≈ 0.776 µM) | 0.5 µg/mL (≈ 0.388 µM) | 0.25 µg/mL (≈ 0.194 µM) |  |  |  | 
3 | CC[C@H](C)[C@@H]1NC(=O)[C@@H](CCCNC(=N)N)NC(=O)[C@H](CC(C)C)NC(=O)[C@H]([C@H](O)C(C)C)NC(=O)[C@@H](NC(=O)[C@H](CC(C)C)NC(=O)[C@H](N)C[Si](C)(C)C)[C@@H](c2ccccc2)OC(=O)[C@H](CO)NC(=O)[C@H]([C@H](O)C(N)=O)NC(=O)CNC(=O)[C@H]([C@H](C)O)NC1=O [Example 59, 3-(Trimethylsilyl-D-alanyl-de(1-D-leucyl)lysobactin bistrifluoroacetate] (H-[dAla(TMS)]L[Phe(3R-OH)][Leu(3R-OH)]L[dR]I[aThr]G[Asn(3S-OH)]S; ester 3-C) | 0.25 µg/mL (≈ 0.191 µM) | 0.25 µg/mL (≈ 0.191 µM) | 0.125 µg/mL (≈ 0.0957 µM) | <0.063 µg/mL |  |  |  | 
4 | CC[C@H](C)[C@@H]1NC(=O)[C@@H](CCCNC(=N)N)NC(=O)[C@H](CC(C)C)NC(=O)[C@H]([C@H](O)C(C)C)NC(=O)[C@@H](NC(=O)[C@H](CC(C)C)NC(=O)[C@H](N)CCCNC(=O)OCc2ccccc2)[C@@H](c2ccccc2)OC(=O)[C@H](CO)NC(=O)[C@H]([C@H](O)C(N)=O)NC(=O)CNC(=O)[C@H]([C@H](C)O)NC1=O [Example 62, N^6-[(Benzyloxy)carbonyl]-D-ornithyl-de(1-D-leucyl)lysobactin bistrifluoroacetate] (H-[dOrn](Cbz)L[Phe(3R-OH)][Leu(3R-OH)]L[dR]I[aThr]G[Asn(3S-OH)]S; ester 3-C) | 1 µg/mL (≈ 0.708 µM) | 0.5 µg/mL (≈ 0.354 µM) | 0.25 µg/mL (≈ 0.177 µM) | 0.5 µg/mL (≈ 0.354 µM) |  |  |  | 
5 | CC[C@H](C)[C@@H]1NC(=O)[C@@H](CCCNC(=N)N)NC(=O)[C@H](CC(C)C)NC(=O)[C@H]([C@H](O)C(C)C)NC(=O)[C@@H](NC(=O)[C@H](CC(C)(C)C)NC(=O)[C@H](N)CC(C)(C)C)[C@@H](c2ccccc2)OC(=O)[C@H](CO)NC(=O)[C@H]([C@H](O)C(N)=O)NC(=O)CNC(=O)[C@H]([C@H](C)O)NC1=O.O=C(O)C(F)(F)F.O=C(O)C(F)(F)F [Example 68] (H-[d(tBuAla)][tBuAla][Phe(3R-OH)][Leu(3R-OH)]L[dR]I[aThr]G[Asn(3S-OH)]S; ester 3-C) | 0.5 µg/mL | 0.5 µg/mL | 0.125 µg/mL | 0.031 µg/mL |  |  |  | 
6 | CC[C@H](C)[C@@H]1NC(=O)[C@@H](CCCNC(=N)N)NC(=O)[C@H](CC(C)C)NC(=O)[C@H]([C@H](O)C(C)C)NC(=O)[C@@H](NC(=O)[C@H](Cc2cccnc2)NC(=O)[C@H](N)CC(C)(C)C)[C@@H](c2ccccc2)OC(=O)[C@H](CO)NC(=O)[C@H]([C@H](O)C(N)=O)NC(=O)CNC(=O)[C@H]([C@H](C)O)NC1=O [Example 69, 3-tert-Butyl-D-alanyl-3-(3-pyridyl)-L-alanyl-de(1-D-leucyl-2-L-leucyl)lysobactin tristrifluoroacetate] (H-[d(tBuAla)][3Pal][Phe(3R-OH)][Leu(3R-OH)]L[dR]I[aThr]G[Asn(3S-OH)]S; ester 3-C) | 1 µg/mL (≈ 0.754 µM) | 1 µg/mL (≈ 0.754 µM) | 0.5 µg/mL (≈ 0.377 µM) | 0.5 µg/mL (≈ 0.377 µM) |  |  |  | 
7 | CC[C@H](C)[C@@H]1NC(=O)[C@@H](CCCNC(=N)N)NC(=O)[C@H](CC(C)C)NC(=O)[C@H]([C@H](O)C(C)C)NC(=O)[C@@H](NC(=O)[C@H](Cc2ccccc2)NC(=O)[C@H](N)CC(C)C)[C@@H](c2ccccc2)OC(=O)[C@H](CO)NC(=O)[C@H]([C@H](O)C(N)=O)NC(=O)CNC(=O)[C@H]([C@H](C)O)NC1=O.O=C(O)C(F)(F)F.O=C(O)C(F)(F)F [Example 74, D-Leucyl-L-phenylalanyl-de(1-D-leucyl-2-L-leucyl)lysobactin bistrifluoroacetate] (H-[dL]F[Phe(3R-OH)][Leu(3R-OH)]L[dR]I[aThr]G[Asn(3S-OH)]S; ester 3-C) | 1 µg/mL | 0.5 µg/mL | 0.125 µg/mL | 0.063 µg/mL |  |  |  | 
8 | CC[C@H](C)[C@@H]1NC(=O)[C@@H](CCCNC(=N)N)NC(=O)[C@H](CC(C)C)NC(=O)[C@H]([C@H](O)C(C)C)NC(=O)[C@@H](NC(=O)[C@H](Cc2ccc([N+](=O)[O-])cc2)NC(=O)[C@H](N)Cc2ccccc2)[C@@H](c2ccccc2)OC(=O)[C@H](CO)NC(=O)[C@H]([C@H](O)C(N)=O)NC(=O)CNC(=O)[C@H]([C@H](C)O)NC1=O.O=C(O)C(F)(F)F.O=C(O)C(F)(F)F [Example 81, D-Phenylalanyl-4-nitro-L-phenylalanyl-de(1-D-leucyl-2-L-leucyl)lysobactine bistrifluoroacetate] (H-[dF][Phe(4-NO2)][Phe(3R-OH)][Leu(3R-OH)]L[dR]I[aThr]G[Asn(3S-OH)]S; ester 3-C) | 0.25 µg/mL | 0.25 µg/mL | 0.5 µg/mL | 0.25 µg/mL |  |  |  | 
9 | CC[C@H](C)[C@@H]1NC(=O)[C@@H](CCCNC(=N)N)NC(=O)[C@H](CC(C)C)NC(=O)[C@H]([C@H](O)C(C)C)NC(=O)[C@@H](NC(=O)[C@H](Cc2ccccc2)NC(=O)[C@H](N)Cc2ccccc2)[C@@H](c2ccccc2)OC(=O)[C@H](CO)NC(=O)[C@H]([C@H](O)C(N)=O)NC(=O)CNC(=O)[C@H]([C@H](C)O)NC1=O.O=C(O)C(F)(F)F.O=C(O)C(F)(F)F [Example 82, D-Phenylalanyl-L-phenylalanyl-de(1-D-leucyl-2-L-leucyl)lysobactine bistrifluoroacetate] (H-[dF]F[Phe(3R-OH)][Leu(3R-OH)]L[dR]I[aThr]G[Asn(3S-OH)]S; ester 3-C) | 1 µg/mL | 0.5 µg/mL | 0.125 µg/mL | 0.125 µg/mL |  |  |  | 
10 | CC[C@H](C)[C@@H]1NC(=O)[C@@H](CCCNC(=N)N)NC(=O)[C@H](CC(C)C)NC(=O)[C@H]([C@H](O)C(C)C)NC(=O)[C@@H](NC(=O)[C@H](Cc2ccc(OC)c(OC)c2)NC(=O)[C@H](N)CC(C)(C)C)[C@@H](c2ccccc2)OC(=O)[C@H](CO)NC(=O)[C@H]([C@H](O)C(N)=O)NC(=O)CNC(=O)[C@H]([C@H](C)O)NC1=O [Example 86, 3-tert-Butyl-D-alanyl-3-(3,4-dimethoxyphenyl)-L-alanyl-de(1-D-leucyl-2-L-leucyl)lysobactin bistri-fluoroacetate] (H-[d(tBuAla)][Phe(3,4-(OMe)2)][Phe(3R-OH)][Leu(3R-OH)]L[dR]I[aThr]G[Asn(3S-OH)]S; ester 3-C) |  |  |  |  | 0.5 µg/mL (≈ 0.361 µM) | 1 µg/mL (≈ 0.722 µM) | 0.25 µg/mL (≈ 0.181 µM) | 0.125 µg/mL (≈ 0.0903 µM)
11 | CC[C@H](C)[C@@H]1NC(=O)[C@@H](CCCNC(=N)N)NC(=O)[C@H](CC(C)C)NC(=O)[C@H]([C@H](O)C(C)C)NC(=O)[C@@H](NC(=O)[C@H](Cc2ccccn2)NC(=O)[C@H](N)CC(C)(C)C)[C@@H](c2ccccc2)OC(=O)[C@H](CO)NC(=O)[C@H]([C@H](O)C(N)=O)NC(=O)CNC(=O)[C@H]([C@H](C)O)NC1=O [Example 97, 3-tert-Butyl-D-alanyl-3-(2-pyridyl)-L-alanyl-de(1-D-leucyl-2-L-leucyl)lysobactin tristrifluoroacetate] (H-[d(tBuAla)][2Pal][Phe(3R-OH)][Leu(3R-OH)]L[dR]I[aThr]G[Asn(3S-OH)]S; ester 3-C) | 0.5 µg/mL (≈ 0.377 µM) | 1 µg/mL (≈ 0.754 µM) | 1 µg/mL (≈ 0.754 µM) | 0.125 µg/mL (≈ 0.0943 µM) |  |  |  | 

From patent US7368424B2, “Acylated nonadepsipeptides” (AiCuris GmbH & Co. KG, priority 2003, dated 2008)
